Experimental data reported in PMC7567501 (Journal of Enzyme Inhibition and Medicinal Chemistry, 2019).
Like-named read-outs stand apart in the source and are kept apart here.

Columns and labels:
AChE = biological target: T1, AChE (Electrophorus electricus, UniProt O42275); assay: biochemical; set-up: species or system Electrophorus electricus (electric eel)
T1 construct: extracted from Electrophorus electricus (electric eel); purchased Sigma-Aldrich; host or cells: Electrophorus electricus (extracted)
T1 sequence (O42275 24-633): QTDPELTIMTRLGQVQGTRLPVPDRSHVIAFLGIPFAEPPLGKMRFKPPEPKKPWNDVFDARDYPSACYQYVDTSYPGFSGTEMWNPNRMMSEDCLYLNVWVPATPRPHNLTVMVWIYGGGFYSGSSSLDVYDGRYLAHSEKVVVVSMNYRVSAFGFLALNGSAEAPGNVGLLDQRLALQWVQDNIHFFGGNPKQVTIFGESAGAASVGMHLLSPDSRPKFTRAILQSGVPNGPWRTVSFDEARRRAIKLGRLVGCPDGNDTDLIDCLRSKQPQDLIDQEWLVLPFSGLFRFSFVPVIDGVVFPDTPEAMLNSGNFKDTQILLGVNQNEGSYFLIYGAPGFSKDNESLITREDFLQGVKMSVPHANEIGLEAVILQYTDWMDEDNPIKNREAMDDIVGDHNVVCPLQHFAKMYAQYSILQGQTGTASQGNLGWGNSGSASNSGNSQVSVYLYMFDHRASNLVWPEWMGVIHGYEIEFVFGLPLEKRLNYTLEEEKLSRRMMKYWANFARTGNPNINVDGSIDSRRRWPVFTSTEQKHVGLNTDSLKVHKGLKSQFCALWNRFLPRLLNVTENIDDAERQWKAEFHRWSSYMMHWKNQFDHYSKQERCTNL
Method: The electronic spectra and the AChE inhibition assays were performed in a 1-cm path length quartz cell with a Perkin Elmer Lambda 35 spectrophotometer equipped with a temperature programmer PTP1 + 1 Peltier System (T = 25.0 ± 0.1 °C). The enzyme AChE 500 U, extracted from Electrophorus electricus (electric eel), was purchased from Sigma-Aldrich.
The enzymatic activity of AChE was determined using an adaptation of the Ellman’s method, as described previously[29]^,[32]. Firstly, a stock solution of AChE was prepared by dissolving enzyme 500 U in 10 mL of tris(hydroxymethyl)aminomethane (TRIS) buffer (50 mM, pH 8). Then, 4–(2-hydroxyethyl)-1-piperazineethanesulfonic acid (HEPES) buffer was used for further dilution of the enzyme solution therefore obtaining the final working solution of AChE. The assay solution consisted of 374 µL of HEPES buffer (50 mM and pH 8.0), a variable volume (10–50 µL) of the compound’s stock solution (1 mg/mL of MeOH), 476 µL of 3 mM bis(3-carboxy-4-nitrophenyl) disulphide (DTNB), 25 µL of AChE stock solution and the necessary amount of methanol to attain the same volume of sample mixture in a 1 mL cuvette. After mixing, samples were left to incubate for 15 min and then 75 µL of 16 mM acetylthiocholine iodide (AChI) solution was added and immediately the reaction was monitored at 405 nm for 5 min. Firstly, enzyme activity was determined by measuring the rate of enzymatic reaction in solution by recording absorbance (with or without enzyme) at 405 nm. To calculate the percent inhibition of AChE, the enzyme activity in the presence of increasing concentrations of the test compound, as well as for a blank reaction (methanol without compounds), were measured at 405 nm.
Where v1is the initial reaction rate in the presence of the inhibitor and v0 is the initial rate of the control reaction. The curves of inhibition were obtained using a plot of percentage of enzymatic inhibition versus inhibitor concentration, and a calibration curve was obtained from which the linear regression parameters were obtained.

Aβ1-42 [1] = biological target: T2, Aβ1-42 (Homo sapiens, UniProt P05067); assay: biochemical; conditions: self-mediated Aβ42 aggregation without copper, inhibitor 80 µM, ThT fluorescence; for inhibition at 80 µM: read-out: Aβ aggregation inhibition, Self-Aβ aggr
T2 construct: Amyloid β-peptide (1–42), Aβ1-42, was purchased from GeneCust; purchased GeneCust
T2 sequence (P05067 672-713 limits assumed): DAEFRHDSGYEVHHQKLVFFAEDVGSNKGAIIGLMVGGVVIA
Excerpt: (§1) The Aβ amyloid plaques are one of the main hallmarks of AD and they result from over production and aggregation of β-amyloid peptide, which can accumulate outside the neurons, by self-mediated or Cu^2+-induced process, interfering with the synaptic impairment, neurotransmission and memory. Therefore, anti-AD drugs have been designed aimed to disrupt and disaggregate the Aβ’s fibrils into monomers, obtaining non-toxic forms of β-secretase’s products. To assess the effect of these new hybrids in the inhibition of amyloid peptide aggregation, a selection of the compounds was in vitro assayed, based on the thioflavin T (ThT) method. Indeed ThT is a histochemical dye able to create ionic or hydrophobic interactions with the peptide β–sheets, the predominant secondary structure of the amyloid fibrils in aqueous solutions[36]. This binding interactions can be monitored by fluorimetry since the presence of ThT-fibrils increases the absorbance and the emission of the ThT dye, and induces red shifts on the absorbance (from 385 to 446 nm) and emission peaks (from 445 to 485 nm)[14]. All the measurements were performed after incubation of the self-mediated and Cu^2+-induced Aβ aggregates in the presence/absence of the herein studied compounds. […]. […] This may be rationalised on the basis of their copper chelating capacity, as previously shown by other metal chelating compounds[14]^,[38]. Furthermore, despite some exceptions (e.g. 20 and 24), the increase in linker length and the chloro TAC substitution induce some small negative effects in the inhibition of Aβ self-aggregation.
(§2) For the study of the β-amyloid (Aβ) aggregation, the ThT fluorescence assay was performed using a Varian Cary Eclipse fluorimeter at the following wavelengths: excitation (446 nm) and emission (485 nm). Amyloid β-peptide (1–42), Aβ1-42, was purchased from GeneCust as a lyophilised powder stored at −20 °C. TEM assays were performed with a Hitachi H8100 transmission electron microscope with a LaB6 filament (200 kV, 10000–20000 × magnification) at MicroLab/IST.
(§3) Among all the methods to measure the aggregation of Aβ1-42, the assay based on Thioflavin T (ThT) is the standard procedure based on the fluorescence of this dye[49]^,[50]. This test is performed with Aβ1-42 peptide previously prepared by dissolving it in 1,1,1,3,3,3–hexafluoro-2-propanol (HFIP), an organic solvent useful to solubilise and monomerize the β–sheet protein aggregates and reserve them in the fridge. Films are re-dissolved in an Eppendorf tube with a fresh solution of a mixture of CH3CN/Na2CO3/NaOH, to have a stable stock solution, and afterwards, added to an optimised fibrillation phosphate buffer. The samples were prepared using MeOH (1 mg/mL) as solvent, followed by incubation in a water bath for 24 h at 37 °C with gentle shaking. After incubation, the samples were added to a 96-well plate (BD Falcon) with 180 µL of 5 µM ThT in 50 mM glycine-NaOH (pH 8.5) buffer. Blank samples were prepared for each concentration in a similar way, devoid of peptide. After 5-min incubation with the dye, the ThT fluorescence was measured at 446 nm (excitation) and 485 nm (emission).

[2] = Radical scavenging (anti-oxidant) activity, DPPH method; assay type: physicochemical; conditions: DPPH in methanol, 30 min, room temperature
Method: A selection of the newly synthesised hybrids was tested for their radical scavenging activity (anti-oxidant activity, EC50), based on their interaction with the 2,2-diphenyl-1-picrylhydrazyl (DPPH) free radical, as previously described.
The anti-oxidant capacity or, more precisely, radical scavenging activity based on the electron and proton donation ability, was evaluated by the DPPH method previously described[29]^,[46]. To a 2.5 mL solution of DPPH (0.002%) in methanol, solutions of each compound were added in different volumes to obtain different concentrations in a 3.5 mL final volume. The samples were incubated for 30 min at room temperature. The absorbance was measured at 517 nm against the corresponding blank (methanol). The antioxidant activity was calculated by Eq. (1)^29. (1) %AA = ((ADPPH−Asample)/ADPPH) × 100
The tests were carried out in triplicate. The compound concentration providing 50% of antioxidant activity (EC50) was obtained by plotting the antioxidant activity against the compound concentration.

Aβ1-42 [3] = biological target: T2, Aβ1-42; assay: Inhibition of Cu2+-induced Aβ1-42 aggregation, thioflavin T fluorescence; assay type: biochemical; conditions: Aβ42 aggregation with copper (40 µM), inhibitor 80 µM, ThT fluorescence; for inhibition at 80 µM: read-out: Aβ aggregation inhibition, Cu-ind Aβ aggr
Excerpt: as §1, §2
as §3, with “The samples were prepared using MeOH (1 mg/mL) as solvent, followed by incubation in a water bath for 24 h at 37 °C with gentle shaking. After incubation, the samples were added to a 96-well plate (BD Falcon) with 180 µL of 5 µM ThT in 50 mM glycine-NaOH (pH 8.5) buffer. Blank samples were prepared for each concentration in a similar way, devoid of peptide.” left out

[4] = AChE from Electric eel, mean of five independent experiments, read-out: AChE inhibition IC50

| Compound | IC50 (AChE; [4]) [µM] | inhibition at 80 µM (Aβ1-42 [1]) [%] | EC50 [2] [µM] | inhibition at 80 µM (Aβ1-42 [3]) [%] | Aβ aggregation inhibition, Cu-ind Aβ aggr (Aβ1-42 [3]) [%] | IC50 (AChE) [µM] | Aβ aggregation inhibition, Self-Aβ aggr (Aβ1-42 [1]) [%] |
| --- | --- | --- | --- | --- | --- | --- | --- |
| COc1cccc2cc(C(=O)NCCCNc3c4c(nc5cc(Cl)ccc35)CCCC4)oc12 [Compound 19, N-(3-((6-chloro-1,2,3,4-tetrahydroacridin-9-yl)amino)propyl)-7-methoxybenzofuran-2-carboxamide] | 0.13 | 57.8 |  |  |  |  |  |
| COc1cccc2cc(C(=O)NCCCCNc3c4c(nc5cc(Cl)ccc35)CCCC4)oc12 [Compound 20, N-(4-((6-chloro-1,2,3,4-tetrahydroacridin-9-yl)amino)butyl)-7-methoxybenzofuran-2-carboxamide] | 0.67 | 64.4 | > 1000 |  |  |  |  |
| O=C(NCCCNc1c2c(nc3ccccc13)CCCC2)c1cc2cccc(O)c2o1 [Compound 21, 7-Hydroxy-N-(3-((1,2,3,4-tetrahydroacridin-9-yl)amino)propyl)benzofuran-2-carboxamide] | 0.81 | 44 | 480 | 50.1 |  |  |  |
| O=C(NCCCNc1c2c(nc3cc(Cl)ccc13)CCCC2)c1cc2cccc(O)c2o1 [Compound 23, N-(3-((6-chloro-1,2,3,4-tetrahydroacridin-9-yl)amino)propyl)-7-hydroxybenzofuran-2-carboxamide] |  |  |  |  | 52.5 | 0.13 | 31.5 |
| O=C(NCCCCNc1c2c(nc3cc(Cl)ccc13)CCCC2)c1cc2cccc(O)c2o1 [Compound 24, N-(4-((6-chloro-1,2,3,4-tetrahydroacridin-9-yl)amino)butyl)-7-hydroxybenzofuran-2-carboxamide] | 0.61 | 43.4 | 434 | 53.4 |  |  |  |
